The subject of the test is BDF1 mice, P388 leukemia ip, median survival T/C. In words: NCI In Vivo Anticancer Drug Screen. Data for tumor model P388 Leukemia (intraperitoneal) in B6D2F1 (BDF1) mice. The conditions noted are these: endpoint: median survival time, higher = longer survival. The gist of the method: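 Reported as T/C, where T is the survival measurement in dosed animals and C the same measurement in vehicle controls.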

The mark [1] stands for this setting: dose: 50.0 mg/kg/injection, schedule: Q01DX009 (ip), vehicle: saline.
Where [2] appears, read: dose: 100.0 mg/kg/injection, schedule: Q01DX009 (ip), vehicle: saline.
[3] abbreviates: dose: 100.0 mg/kg/injection, schedule: Q01DX009 (ip), vehicle: saline with Tween-80.
[4] abbreviates: dose: 200.0 mg/kg/injection, schedule: Q01DX009 (ip), vehicle: saline with Tween-80.
Where [5] appears, read: dose: 100.0 mg/kg/injection, schedule: Q04DX003 (ip), vehicle: saline with Tween-80.
Setting [6] is: dose: 200.0 mg/kg/injection, schedule: Q04DX003 (ip), vehicle: saline with Tween-80.
Where [7] appears, read: dose: 400.0 mg/kg/injection, schedule: Q01DX009 (ip), vehicle: saline with Tween-80.
Where [8] appears, read: dose: 400.0 mg/kg/injection, schedule: Q04DX003 (ip), vehicle: saline with Tween-80.
The mark [9] stands for this setting: dose: 100.0 mg/kg/injection, schedule: Q01DX001 (ip), vehicle: saline with Tween-80.
[10] abbreviates: dose: 200.0 mg/kg/injection, schedule: Q01DX001 (ip), vehicle: saline with Tween-80.

The structures appear in SMILES notation. Where “and” joins values, the source holds several entries; their conditions need not be identical. Equal entries are not always repeated. Toxic doses and inconclusive results are not listed.

Consider `O=C(O)c1cc(S(=O)(=O)F)cc(S(=O)(=O)F)c1`, for which the T/C (dose: 25.0 mg/kg/injection, schedule: Q01DX009 (ip), vehicle: alcohol) is 113 % of control; the T/C (dose: 33.0 mg/kg/injection, schedule: Q01DX009 (ip), vehicle: alcohol) is 116 % of control; the T/C (dose: 50.0 mg/kg/injection, schedule: Q01DX009 (ip), vehicle: alcohol) was 112 % of control.

As to `CCN(CC)CCCCCNc1cc(Cl)c(Cl)cc1[N+](=O)[O-]`, the T/C was 111 % of control under setting [1] and 100 % of control under setting [2].

Consider `O=C1CSC(c2ccccc2)N1c1nccs1` (stereo not given), for which the T/C runs as follows: (dose: 50.0 mg/kg/injection, schedule: Q01DX009 (ip), vehicle: saline with Tween-80) 98 % of control; under setting [3], 91 % of control; under setting [4], 104 % of control.

In the case of `O=C(/C=C/C=C/c1ccccc1)c1ccc(Cl)cc1`, the T/C by setting is: under setting [3], 115 % of control; under setting [5], 100 % of control; under setting [4], 115 % of control; under setting [6], 90 % of control; under setting [7], 110 % of control; under setting [8], 109 % of control.

With `FC(F)(F)C1=NC(=S)C(c2[nH]c(C(F)(F)F)nc2S)=N1`, the T/C runs as follows: (dose: 3.12 mg/kg/injection, schedule: Q01DX009 (ip), vehicle: water) 91 % of control; (dose: 6.25 mg/kg/injection, schedule: Q01DX009 (ip), vehicle: water) 99 % of control; (dose: 12.5 mg/kg/injection, schedule: Q01DX009 (ip), vehicle: water) 108 % of control; (dose: 12.5 mg/kg/injection, schedule: Q04DX003 (ip), vehicle: water) 89 % of control and 107 % of control; (dose: 25.0 mg/kg/injection, schedule: Q01DX009 (ip), vehicle: water) 103 % of control; (dose: 25.0 mg/kg/injection, schedule: Q04DX003 (ip), vehicle: water) 95 % of control and 100 % of control. Besides, the T/C by setting is: (dose: 50.0 mg/kg/injection, schedule: Q01DX009 (ip), vehicle: water) 112 % of control; (dose: 50.0 mg/kg/injection, schedule: Q04DX003 (ip), vehicle: water) 89 % of control and 100 % of control; (dose: 100.0 mg/kg/injection, schedule: Q01DX009 (ip), vehicle: water) 110 % of control; (dose: 100.0 mg/kg/injection, schedule: Q04DX003 (ip), vehicle: water) 89 % of control and 105 % of control.

As to `CCC[N+](C)(C)CCCCOCCCC[N+](C)(C)CCC`, the T/C (dose: 3.0 mg/kg/injection, schedule: Q01DX009 (ip), vehicle: saline) was 88 % of control; the T/C (dose: 3.0 mg/kg/injection, schedule: Q04DX003 (ip), vehicle: saline) was 100 % of control; the T/C (dose: 6.0 mg/kg/injection, schedule: Q01DX009 (ip), vehicle: saline) is 92 % of control; the T/C (dose: 6.0 mg/kg/injection, schedule: Q04DX003 (ip), vehicle: saline) was 116 % of control; the T/C (dose: 6.25 mg/kg/injection, schedule: Q04DX003 (ip), vehicle: saline) is 113 % of control; the T/C (dose: 12.0 mg/kg/injection, schedule: Q01DX009 (ip), vehicle: saline) was 96 % of control. For the same compound, the T/C runs as follows: (dose: 12.0 mg/kg/injection, schedule: Q04DX003 (ip), vehicle: saline) 100 % of control; (dose: 12.5 mg/kg/injection, schedule: Q04DX003 (ip), vehicle: saline) 109 % of control.

With `COc1ccccc1N1C(=O)CC(Sc2ccccc2N)C1=O` (stereo not given), the T/C is 91 % of control under setting [3]; 95 % of control (dose: 132.0 mg/kg/injection, schedule: Q01DX009 (ip), vehicle: saline with Tween-80); 105 % of control under setting [4]; 105 % of control (dose: 300.0 mg/kg/injection, schedule: Q01DX009 (ip), vehicle: saline with Tween-80); 91 % of control under setting [7].

As for `CCOC(=O)c1c(-c2ccccc2)cn2c1OC(C)CC2(C)C` (stereo not given), the T/C was 100 % of control (dose: 50.0 mg/kg/injection, schedule: Q01DX001 (ip), vehicle: saline sonified); 100 % of control (dose: 100.0 mg/kg/injection, schedule: Q01DX001 (ip), vehicle: saline sonified); 95 % of control (dose: 200.0 mg/kg/injection, schedule: Q01DX001 (ip), vehicle: saline sonified).

In the case of `O=S(=O)(/N=C1C=C/C(=N\S(=O)(=O)c2ccccc2)C(Sc2ccccc2)=C\1)c1ccccc1`, the T/C was 104 % of control (dose: 50.0 mg/kg/injection, schedule: Q01DX001 (ip), vehicle: saline with Tween-80); 90 % of control under setting [9]; 122 % of control under setting [10].

Turning to `NC(=S)N/N=C\c1ncnc2nc[nH]c12`, the T/C reads like this: (dose: 1.0 mg/kg/injection, schedule: Q01DX009 (ip), vehicle: Klucel (hydroxypropylcellulose) (HPC)) 107 % of control; (dose: 2.0 mg/kg/injection, schedule: Q01DX009 (ip), vehicle: Klucel (hydroxypropylcellulose) (HPC)) 111 % of control; (dose: 4.0 mg/kg/injection, schedule: Q01DX009 (ip), vehicle: Klucel (hydroxypropylcellulose) (HPC)) 150 % of control; (dose: 8.0 mg/kg/injection, schedule: Q01DX009 (ip), vehicle: Klucel (hydroxypropylcellulose) (HPC)) 160 % of control; (dose: 16.0 mg/kg/injection, schedule: Q01DX009 (ip), vehicle: Klucel (hydroxypropylcellulose) (HPC)) 175 % of control; (dose: 32.0 mg/kg/injection, schedule: Q01DX009 (ip), vehicle: Klucel (hydroxypropylcellulose) (HPC)) 185 % of control.

With `c1ccc(OCC2c3ccccc3Nc3ccccc32)cc1`, the T/C was 91 % of control under setting [9]; 94 % of control under setting [10]; 100 % of control (dose: 400.0 mg/kg/injection, schedule: Q01DX001 (ip), vehicle: saline with Tween-80).

On to `C[N+](C)(CCc1ccccc1)CC(O)COc1ccccc1` (stereo not given), for which the T/C reads like this: (dose: 9.5 mg/kg/injection, schedule: Q01DX009 (ip), vehicle: Klucel (hydroxypropylcellulose) (HPC)) 96 % of control; (dose: 9.5 mg/kg/injection, schedule: Q04DX003 (ip), vehicle: Klucel (hydroxypropylcellulose) (HPC)) 95 % of control; (dose: 19.0 mg/kg/injection, schedule: Q01DX009 (ip), vehicle: Klucel (hydroxypropylcellulose) (HPC)) 96 % of control; (dose: 19.0 mg/kg/injection, schedule: Q04DX003 (ip), vehicle: Klucel (hydroxypropylcellulose) (HPC)) 95 % of control; (dose: 38.0 mg/kg/injection, schedule: Q04DX003 (ip), vehicle: Klucel (hydroxypropylcellulose) (HPC)) 100 % of control.

Consider `OCC12CCCCC1CC1(CC2)OCCO1` (stereo not given), for which the T/C is 92 % of control under setting [2]; 95 % of control under setting [5]; 90 % of control under setting [6]; 96 % of control (dose: 400.0 mg/kg/injection, schedule: Q01DX009 (ip), vehicle: saline); 90 % of control under setting [8].

On to `CC(O)C(F)(F)C(F)(F)C(F)(F)C(C)O` (stereo not given), for which the T/C by setting is: under setting [1], 90 % of control; under setting [2], 104 % of control; (dose: 100.0 mg/kg/injection, schedule: Q04DX003 (ip), vehicle: saline sonified) 116 % of control; (dose: 200.0 mg/kg/injection, schedule: Q01DX009 (ip), vehicle: saline) 104 % of control; (dose: 200.0 mg/kg/injection, schedule: Q04DX003 (ip), vehicle: saline sonified) 94 % of control; (dose: 400.0 mg/kg/injection, schedule: Q04DX003 (ip), vehicle: saline sonified) 116 % of control.

On to `CCN(CC)CCC1(C#N)Cc2ccccc2N(CC)c2ccccc21` (stereo not given), for which the T/C runs as follows: under setting [3], 107 % of control; under setting [4], 113 % of control.

(Values after PubChem BioAssay AID328 (DTP/NCI, 2004).)
